# Biological target: human PDE1B enzyme (Homo sapiens (Human), UniProt Q01064)
# Test: IMAP TR-FRET PDE1B enzymatic assay
# Type: biochemical
# Settings: negative log of half-maximal molar inhibitory concentration, 200 nM FAM-cAMP, values given as bins; for IC50: read-out: PDE1b (pIC50) (converted)
# How it was run: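 Full-length GST-tagged human PDE1B (250 pg/well) in IMAP BSA buffer with 10 U/ml calmodulin and 2.5 mM CaCl2; compound pre-incubated 5 min at room temperature, then 200 nM (final) FAM-cAMP for 30 min. IMAP binding reagent/Tb added, 1 h; TR-FRET 520/490 ratio read. IC50 from sigmoidal dose-response fit.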
SMILES,PDE1b (pIC50),IC50 [nM]
"Cc1oc2ncnc(NC3(C)CC3)c2c1C(=O)N1CCC(c2ncc(Cl)cn2)C1 (centres unmarked) [Example 335, 5-[3-(5-Chloropyrimidin-2-yl)pyrrolidine-1-carbonyl]-6-methyl-N-(1-methylcyclopropyl)furo[2,3-d]pyrimidin-4-amine]",>8,–
"COc1cc(CNC(=O)c2c(C)oc3ncnc(NC4(C)CC4)c23)ccc1F [Example 336, N-[(4-Fluoro-3-methoxyphenyl)methyl]-6-methyl-4-[(1-methylcyclopropyl)amino]furo[2,3-d]pyrimidine-5-carboxamide]",–,10 to 100
"Cc1oc2ncnc(NC3(C)CC3)c2c1C(=O)N1CCc2c(cc[nH]c2=O)C1 [Example 337, 6-{6-Methyl-4-[(1-methylcyclopropyl)amino]furo[2,3-d]pyrimidine-5-carbonyl}-1,2,5,6,7,8-hexahydro-2,6-naphthyridin-1-one]",–,10 to 100
"Cc1oc2ncnc(NC3(C)CC3)c2c1C(=O)N1CCc2ccc(O)cc2C1C (centres unmarked) [Example 338, 1-Methyl-2-{6-methyl-4-[(1-methylcyclopropyl)amino]furo[2,3-d]pyrimidine-5-carbonyl}-1,2,3,4-tetrahydroisoquinolin-7-ol]",>8,–
"Cc1oc2ncnc(NC3(C)CC3)c2c1C(=O)N1CCC(c2cncc(F)c2)C1 (centres unmarked) [Example 339, 5-[3-(5-Fluoropyridin-3-yl)pyrrolidine-1-carbonyl]-6-methyl-N-(1-methylcyclopropyl)furo[2,3-d]pyrimidin-4-amine]",–,10 to 100
"Cc1oc2ncnc(NC3(C)CC3)c2c1C(=O)N1CCc2c(ncnc2NC2CC2)C1 [Example 342, 5-[4-(Cyclopropylamino)-5H,6H,7H,8H-pyrido[3,4-d]pyrimidine-7-carbonyl]-6-methyl-N-(1-methylcyclopropyl)furo[2,3-d]pyrimidin-4-amine]",–,10 to 100
"Cc1oc2ncnc(NC3(C)CC3)c2c1C(=O)N1CCc2c(ncnc2NCC2CC2)C1 [Example 343, 5-{4-[(Cyclopropylmethyl)amino]-5H,6H,7H,8H-pyrido[3,4-d]pyrimidine-7-carbonyl}-6-methyl-N-(1-methylcyclopropyl)furo[2,3-d]pyrimidin-4-amine]",>8,–
"Cc1oc2ncnc(NC3(C)CC3)c2c1C(=O)N1CCC(c2ncc(Cl)cn2)CC1 [Example 344, 5-[4-(5-Chloropyrimidin-2-yl)piperidine-1-carbonyl]-6-methyl-N-(1-methylcyclopropyl)furo[2,3-d]pyrimidin-4-amine]",>8,–
"COc1ccnc(C2CCN(C(=O)c3c(C)oc4ncnc(NC5(C)CC5)c34)CC2)n1 [Example 345, 5-[4-(4-Methoxypyrimidin-2-yl)piperidine-1-carbonyl]-6-methyl-N-(1-methylcyclopropyl)furo[2,3-d]pyrimidin-4-amine]",>8,–
"Cc1oc2ncnc(NC3(C)CC3)c2c1C(=O)N1CCC(c2ccc(O)cc2)C1 (centres unmarked) [Example 346, 4-(1-{6-Methyl-4-[(1-methylcyclopropyl)amino]furo[2,3-d]pyrimidine-5-carbonyl}pyrrolidin-3-yl)phenol]",>8,–
"Cc1oc2ncnc(NC3(C)CC3)c2c1C(=O)N1CCC(O)(c2ccccc2)C1 (centres unmarked) [Example 347, 1-{6-Methyl-4-[(1-methylcyclopropyl)amino]furo[2,3-d]pyrimidine-5-carbonyl}-3-phenylpyrrolidin-3-ol]",–,10 to 100
"Cc1oc2ncnc(NC3(C)CC3)c2c1C(=O)N1CCC(c2ccc(Cl)cn2)C1 (centres unmarked) [Example 348, 5-[3-(5-Chloropyridin-2-yl)pyrrolidine-1-carbonyl]-6-methyl-N-(1-methylcyclopropyl)furo[2,3-d]pyrimidin-4-amine]",>8,–
"Cc1oc2ncnc(NC3(C)CC3)c2c1C(=O)NC1(c2ncccn2)CC1 [Example 349, 6-Methyl-4-[(1-methylcyclopropyl)amino]-N-[1-(pyrimidin-2-yl)cyclopropyl]furo[2,3-d]pyrimidine-5-carboxamide]",–,10 to 100
"Cc1cc(C(C)NC(=O)c2c(C)oc3ncnc(NC4(C)CC4)c23)no1 (centres unmarked) [Example 350, 6-Methyl-N-[1-(5-methyl-1,2-oxazol-3-yl)ethyl]-4-[(1-methylcyclopropyl)amino]furo[2,3-d]pyrimidine-5-carboxamide]",–,10 to 100
"Cc1oc2ncnc(NC3(C)CC3)c2c1C(=O)N1CCC(c2nc(Cl)ncc2F)CC1 [Example 351, 5-[4-(2-Chloro-5-fluoropyrimidin-4-yl)piperidine-1-carbonyl]-6-methyl-N-(1-methylcyclopropyl)furo[2,3-d]pyrimidin-4-amine]",>8,–
"Cc1oc2ncnc(NC3(C)CC3)c2c1C(=O)NCc1cc(-c2cnn(C)c2)on1 [Example 352, 6-Methyl-N-{[5-(1-methyl-1H-pyrazol-4-yl)-1,2-oxazol-3-yl]methyl}-4-[(1-methylcyclopropyl)amino]furo[2,3-d]pyrimidine-5-carboxamide]",–,10 to 100

SMILES,PDE1b (pIC50),IC50 [nM]
"Cc1oc2ncnc(NC3(C)CC3)c2c1C(=O)NC1(CO)CCC1 [Example 353, N-[1-(Hydroxymethyl)cyclobutyl]-6-methyl-4-[(1-methylcyclopropyl)amino]furo[2,3-d]pyrimidine-5-carboxamide]",–,10 to 100
"Cc1oc2ncnc(NC3(C)CC3)c2c1C(=O)N1CC(c2cccc(F)n2)C1 [Example 354, 5-[3-(6-Fluoropyridin-2-yl)azetidine-1-carbonyl]-6-methyl-N-(1-methylcyclopropyl)furo[2,3-d]pyrimidin-4-amine]",>8,–
"Cc1oc2ncnc(NC3(C)CC3)c2c1C(=O)N1CCC(c2ncc(O)cn2)CC1 [Example 355, 2-(1-{6-Methyl-4-[(1-methylcyclopropyl)amino]furo[2,3-d]pyrimidine-5-carbonyl}piperidin-4-yl)pyrimidin-5-ol]",>8,–
"Cc1oc2ncnc(NC3(C)CC3)c2c1C(=O)N1CCC(c2ncc(F)cn2)CC1 [Example 356, 5-[4-(5-Fluoropyrimidin-2-yl)piperidine-1-carbonyl]-6-methyl-N-(1-methylcyclopropyl)furo[2,3-d]pyrimidin-4-amine]",–,10 to 100
"Cc1oc2ncnc(NC3(C)CC3)c2c1C(=O)N1CCN(c2ncc(F)cn2)CC1C (centres unmarked) [Example 357, 5-[4-(5-Fluoropyrimidin-2-yl)-2-methylpiperazine-1-carbonyl]-6-methyl-N-(1-methylcyclopropyl)furo[2,3-d]pyrimidin-4-amine]",–,10 to 100
"Cc1oc2ncnc(NC3(C)CC3)c2c1C(=O)N1CCN(c2ncc(F)cn2)C(C)C1 (centres unmarked) [Example 358, 5-[4-(5-Fluoropyrimidin-2-yl)-3-methylpiperazine-1-carbonyl]-6-methyl-N-(1-methylcyclopropyl)furo[2,3-d]pyrimidin-4-amine]",–,10 to 100
"Cc1oc2ncnc(NC3(C)CC3)c2c1C(=O)N1CCN(c2ccc(S(C)(=O)=O)cc2F)CC1 [Example 359, 5-[4-(2-Fluoro-4-methanesulfonylphenyl)piperazine-1-carbonyl]-6-methyl-N-(1-methylcyclopropyl)furo[2,3-d]pyrimidin-4-amine]",–,10 to 100
"Cc1cnc(C2CCN(C(=O)c3c(C)oc4ncnc(NC5(C)CC5)c34)CC2)nc1 [Example 360, 6-Methyl-N-(1-methylcyclopropyl)-5-[4-(5-methylpyrimidin-2-yl)piperidine-1-carbonyl]furo[2,3-d]pyrimidin-4-amine]",>8,–
"COc1cccc(C2CCN(C(=O)c3c(C)oc4ncnc(NC5(C)CC5)c34)C2)c1 (centres unmarked) [Example 361, 5-[3-(3-Methoxyphenyl)pyrrolidine-1-carbonyl]-6-methyl-N-(1-methylcyclopropyl)furo[2,3-d]pyrimidin-4-amine]",>8,–
"Cc1oc2ncnc(NC3(C)CC3)c2c1C(=O)N1CCN(c2nc(Cl)ncc2F)CC1 [Example 362, 5-[4-(2-Chloro-5-fluoropyrimidin-4-yl)piperazine-1-carbonyl]-6-methyl-N-(1-methylcyclopropyl)furo[2,3-d]pyrimidin-4-amine]",–,10 to 100
"Cc1oc2ncnc(NC3(C)CC3)c2c1C(=O)NNc1ncc(F)cn1 [Example 363, N′-(5-Fluoropyrimidin-2-yl)-6-methyl-4-[(1-methylcyclopropyl)amino]furo[2,3-d]pyrimidine-5-carbohydrazide]",–,100 to 1000
"COc1ccc(C2CCN(C(=O)c3c(C)oc4ncnc(NC5(C)CC5)c34)CC2)nn1 [Example 364, 5-[4-(6-Methoxypyridazin-3-yl)piperidine-1-carbonyl]-6-methyl-N-(1-methylcyclopropyl)furo[2,3-d]pyrimidin-4-amine]",–,10 to 100
"COc1cnc(C2CCN(C(=O)c3c(C)oc4ncnc(NC5(C)CC5)c34)CC2)cn1 [Example 365, 5-[4-(5-Methoxypyrazin-2-yl)piperidine-1-carbonyl]-6-methyl-N-(1-methylcyclopropyl)furo[2,3-d]pyrimidin-4-amine]",>8,–
"COc1ccc(C2CCN(C(=O)c3c(C)oc4ncnc(NC5(C)CC5)c34)CC2)nc1 [Example 366, 5-[4-(5-Methoxypyridin-2-yl)piperidine-1-carbonyl]-6-methyl-N-(1-methylcyclopropyl)furo[2,3-d]pyrimidin-4-amine]",>8,–
"COc1cccc(C2CCN(C(=O)c3c(C)oc4ncnc(NC5(C)CC5)c34)C2)n1 (centres unmarked) [Example 367, 5-[3-(6-Methoxypyridin-2-yl)pyrrolidine-1-carbonyl]-6-methyl-N-(1-methylcyclopropyl)furo[2,3-d]pyrimidin-4-amine]",>8,–
"Cc1oc2ncnc(NC3(C)CC3)c2c1C(=O)N1CCC(c2nccc(C3CC3)n2)CC1 [Example 368, 5-[4-(4-Cyclopropylpyrimidin-2-yl)piperidine-1-carbonyl]-6-methyl-N-(1-methylcyclopropyl)furo[2,3-d]pyrimidin-4-amine]",>8,–
